Assay: stability of the new salt form on longer heating at increased temperatures
Type: physicochemical

Compound: CCCCC1=NC2(CCCC2)C(=O)N1Cc1ccc(-c2ccccc2-c2nnn[nH]2)cc1.Cl [2-butyl-1-[2′-(1H-tetrazol-5-yl)bifenyl-4-yl-methyl]spiro[2-imidazoline-4.1′-cyclopentane]-5-one hydrochloride]
- stability (decomposition on heating): does not decompose

— patent US20080306128A1, “Preparation of Hydrochloride Salts of Tetrazole Derivative” (priority 2004, published 2008)
